Source: ChEMBL document CHEMBL4325862, “Identification of novel quinazoline derivatives as potent antiplasmodial agents” (Eur J Med Chem, 2019)

What was measured:
Plasmodium falciparum [1] = experiment: Antiplasmodial activity against asynchronous form of Plasmodium falciparum 3D7 infected in human erythrocytes assessed as parasite growth inhibition at 10 uM after 48 hrs by SYBR green1 staining based flow cytometry relative to control; type: functional; conditions: 3D7, 48 h
Plasmodium falciparum [2] = experiment: Antiplasmodial activity against asynchronous form of Plasmodium falciparum 3D7 infected in human erythrocytes assessed as parasite growth inhibition after 48 hrs by SYBR green1 staining based flow cytometry; type: functional, organism-based; conditions: 3D7, 48 h
Histone deacetylase 1 = Histone deacetylase 1 (Homo sapiens, UniProt Q13547); experiment: Inhibition of recombinant human HDAC1 using RHK-K(Ac) as substrate by homogeneous fluorescence release assay
Histone deacetylase 1, sequence (Q13547 whole entry): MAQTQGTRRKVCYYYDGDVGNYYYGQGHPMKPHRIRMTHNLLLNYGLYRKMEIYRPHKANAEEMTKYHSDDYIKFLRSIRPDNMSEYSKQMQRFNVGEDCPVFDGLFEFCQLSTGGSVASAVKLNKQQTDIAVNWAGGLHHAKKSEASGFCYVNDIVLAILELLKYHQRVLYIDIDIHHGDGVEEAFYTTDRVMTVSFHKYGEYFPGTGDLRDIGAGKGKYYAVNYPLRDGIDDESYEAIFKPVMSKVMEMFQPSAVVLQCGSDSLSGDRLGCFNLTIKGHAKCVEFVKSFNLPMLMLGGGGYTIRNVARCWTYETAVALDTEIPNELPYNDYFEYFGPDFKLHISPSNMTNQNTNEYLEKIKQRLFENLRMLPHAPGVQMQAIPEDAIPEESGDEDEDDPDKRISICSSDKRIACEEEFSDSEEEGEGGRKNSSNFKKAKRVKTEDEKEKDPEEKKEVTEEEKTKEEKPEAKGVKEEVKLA

Histone deacetylase 4 = Histone deacetylase 4 (Homo sapiens, UniProt P56524); experiment: Inhibition of recombinant human HDAC4 using Boc-Lys(trifluoroacetyl)-AMC as substrate by homogeneous fluorescence release assay
Histone deacetylase 4, sequence (P56524 whole entry): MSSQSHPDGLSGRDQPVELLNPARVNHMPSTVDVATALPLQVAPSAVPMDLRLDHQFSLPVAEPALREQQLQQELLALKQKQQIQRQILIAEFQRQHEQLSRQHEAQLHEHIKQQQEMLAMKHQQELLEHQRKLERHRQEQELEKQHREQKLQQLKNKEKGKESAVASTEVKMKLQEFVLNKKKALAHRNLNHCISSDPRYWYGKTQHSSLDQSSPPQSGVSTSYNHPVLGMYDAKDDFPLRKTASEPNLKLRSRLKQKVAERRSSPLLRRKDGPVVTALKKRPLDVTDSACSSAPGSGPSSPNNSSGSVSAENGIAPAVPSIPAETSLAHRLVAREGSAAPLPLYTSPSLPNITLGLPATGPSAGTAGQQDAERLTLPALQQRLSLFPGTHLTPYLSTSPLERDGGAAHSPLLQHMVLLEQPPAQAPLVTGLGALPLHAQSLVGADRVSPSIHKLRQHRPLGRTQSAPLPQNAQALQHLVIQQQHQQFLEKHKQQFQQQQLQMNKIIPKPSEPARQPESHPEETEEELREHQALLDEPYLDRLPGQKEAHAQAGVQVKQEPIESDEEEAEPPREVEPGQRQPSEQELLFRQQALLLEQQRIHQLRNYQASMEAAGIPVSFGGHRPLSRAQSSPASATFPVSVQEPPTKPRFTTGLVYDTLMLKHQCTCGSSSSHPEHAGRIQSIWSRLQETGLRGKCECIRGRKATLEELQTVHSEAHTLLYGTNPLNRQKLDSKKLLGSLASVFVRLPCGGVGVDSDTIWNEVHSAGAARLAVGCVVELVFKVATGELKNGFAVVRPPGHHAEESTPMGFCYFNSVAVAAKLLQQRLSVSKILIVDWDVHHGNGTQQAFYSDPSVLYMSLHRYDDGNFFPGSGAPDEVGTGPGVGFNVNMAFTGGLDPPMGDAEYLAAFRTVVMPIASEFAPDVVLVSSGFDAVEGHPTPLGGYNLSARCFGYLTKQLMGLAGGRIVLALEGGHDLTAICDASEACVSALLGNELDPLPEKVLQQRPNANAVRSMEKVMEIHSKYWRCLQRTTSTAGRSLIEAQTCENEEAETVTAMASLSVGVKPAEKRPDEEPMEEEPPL

[3] = target: T1, Protein deacetylase HDAC6 (Homo sapiens, UniProt Q9UBN7); experiment: Inhibition of recombinant human HDAC6 using RHK-K(Ac) as substrate by homogeneous fluorescence release assay
T1 sequence (Q9UBN7 whole entry): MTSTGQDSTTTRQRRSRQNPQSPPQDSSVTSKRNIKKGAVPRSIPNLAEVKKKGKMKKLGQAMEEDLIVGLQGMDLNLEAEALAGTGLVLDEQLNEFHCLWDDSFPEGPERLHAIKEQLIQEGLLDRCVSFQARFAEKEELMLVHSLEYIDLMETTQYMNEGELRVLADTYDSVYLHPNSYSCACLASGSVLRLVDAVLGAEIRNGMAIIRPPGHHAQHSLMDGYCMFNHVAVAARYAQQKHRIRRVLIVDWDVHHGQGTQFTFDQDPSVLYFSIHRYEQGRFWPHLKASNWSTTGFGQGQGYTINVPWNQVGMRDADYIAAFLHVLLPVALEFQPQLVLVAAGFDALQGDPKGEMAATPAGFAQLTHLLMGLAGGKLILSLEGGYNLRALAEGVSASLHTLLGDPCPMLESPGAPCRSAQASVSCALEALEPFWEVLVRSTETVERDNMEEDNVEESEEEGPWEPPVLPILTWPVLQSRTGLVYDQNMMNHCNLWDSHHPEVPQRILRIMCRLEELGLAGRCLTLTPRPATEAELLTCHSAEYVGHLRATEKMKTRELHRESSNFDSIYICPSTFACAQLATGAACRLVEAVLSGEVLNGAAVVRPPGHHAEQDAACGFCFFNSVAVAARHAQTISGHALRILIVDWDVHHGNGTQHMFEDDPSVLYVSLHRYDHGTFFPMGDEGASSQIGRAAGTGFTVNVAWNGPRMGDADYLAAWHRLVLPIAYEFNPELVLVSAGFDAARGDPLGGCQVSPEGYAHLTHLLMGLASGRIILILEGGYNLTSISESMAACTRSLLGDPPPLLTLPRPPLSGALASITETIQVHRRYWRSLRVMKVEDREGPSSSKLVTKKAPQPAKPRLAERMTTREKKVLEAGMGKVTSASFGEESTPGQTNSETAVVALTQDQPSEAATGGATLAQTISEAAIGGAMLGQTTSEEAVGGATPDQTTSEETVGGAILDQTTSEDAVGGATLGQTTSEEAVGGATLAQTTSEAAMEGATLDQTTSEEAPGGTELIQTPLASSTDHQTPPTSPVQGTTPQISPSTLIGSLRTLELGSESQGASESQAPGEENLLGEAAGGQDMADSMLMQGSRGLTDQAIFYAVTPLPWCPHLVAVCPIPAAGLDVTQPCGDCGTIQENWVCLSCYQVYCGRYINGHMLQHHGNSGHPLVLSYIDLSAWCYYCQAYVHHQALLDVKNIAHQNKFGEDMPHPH

[4] = target: DNA (cytosine-5)-methyltransferase 1 (Homo sapiens, UniProt P26358); experiment: Inhibition of recombinant human DNMT1 using biotinylated DNA duplex as substrate measured after 2 hrs in presence of Adomet/[methyl-3H]Adomet by topcount method
DNA (cytosine-5)-methyltransferase 1, sequence (P26358 whole entry, the tested form may be a part): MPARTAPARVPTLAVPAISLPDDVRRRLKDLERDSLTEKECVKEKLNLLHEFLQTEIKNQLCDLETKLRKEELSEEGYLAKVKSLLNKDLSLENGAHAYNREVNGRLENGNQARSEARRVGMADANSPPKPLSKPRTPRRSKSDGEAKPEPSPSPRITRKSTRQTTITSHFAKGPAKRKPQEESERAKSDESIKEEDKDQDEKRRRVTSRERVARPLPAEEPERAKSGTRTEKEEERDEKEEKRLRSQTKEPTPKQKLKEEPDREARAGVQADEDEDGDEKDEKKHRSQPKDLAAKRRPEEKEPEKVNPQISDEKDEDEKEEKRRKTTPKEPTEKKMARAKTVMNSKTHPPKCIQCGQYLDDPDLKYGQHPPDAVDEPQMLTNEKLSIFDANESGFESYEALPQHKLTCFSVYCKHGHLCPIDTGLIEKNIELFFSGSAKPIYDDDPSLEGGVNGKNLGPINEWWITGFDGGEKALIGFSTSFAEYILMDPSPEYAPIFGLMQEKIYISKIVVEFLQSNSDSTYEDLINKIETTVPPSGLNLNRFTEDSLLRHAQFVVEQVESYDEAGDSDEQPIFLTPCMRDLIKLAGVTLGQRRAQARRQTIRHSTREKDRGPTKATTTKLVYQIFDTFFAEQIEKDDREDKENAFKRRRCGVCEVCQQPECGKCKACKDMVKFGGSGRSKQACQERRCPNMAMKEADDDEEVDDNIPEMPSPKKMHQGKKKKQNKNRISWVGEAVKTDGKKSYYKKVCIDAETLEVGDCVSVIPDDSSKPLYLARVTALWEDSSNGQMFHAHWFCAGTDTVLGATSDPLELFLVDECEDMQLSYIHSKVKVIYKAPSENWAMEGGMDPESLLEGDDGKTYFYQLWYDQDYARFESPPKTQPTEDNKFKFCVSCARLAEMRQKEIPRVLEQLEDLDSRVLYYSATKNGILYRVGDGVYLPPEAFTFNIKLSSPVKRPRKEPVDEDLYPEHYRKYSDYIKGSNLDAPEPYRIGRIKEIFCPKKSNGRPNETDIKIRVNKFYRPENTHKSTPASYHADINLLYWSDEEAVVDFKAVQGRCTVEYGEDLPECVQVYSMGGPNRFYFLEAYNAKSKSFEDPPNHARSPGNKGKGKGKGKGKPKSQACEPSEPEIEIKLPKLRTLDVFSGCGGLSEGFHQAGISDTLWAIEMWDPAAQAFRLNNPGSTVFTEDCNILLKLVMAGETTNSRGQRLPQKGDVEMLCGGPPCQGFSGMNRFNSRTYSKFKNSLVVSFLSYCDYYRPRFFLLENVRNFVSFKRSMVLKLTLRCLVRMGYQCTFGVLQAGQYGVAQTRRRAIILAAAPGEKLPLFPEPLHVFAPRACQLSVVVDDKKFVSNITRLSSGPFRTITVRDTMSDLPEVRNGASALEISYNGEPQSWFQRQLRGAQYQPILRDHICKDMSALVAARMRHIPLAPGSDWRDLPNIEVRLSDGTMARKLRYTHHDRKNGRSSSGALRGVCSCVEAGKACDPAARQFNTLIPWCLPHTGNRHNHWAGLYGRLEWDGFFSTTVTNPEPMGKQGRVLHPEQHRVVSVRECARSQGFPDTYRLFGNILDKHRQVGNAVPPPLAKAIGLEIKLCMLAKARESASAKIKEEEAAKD

[5] = target: DNA (cytosine-5)-methyltransferase 3A (Homo sapiens, UniProt Q9Y6K1); experiment: Inhibition of recombinant human DNMT3a C-terminal catalytic domain (623 to 908 residues) using 5'-biotinylated/3'-FAM-oligonucleotide as substrate measured after 1 hr in presence of Adomet by fluorescence assay
DNA (cytosine-5)-methyltransferase 3A, sequence (Q9Y6K1 whole entry, looked up, the tested form may be a part): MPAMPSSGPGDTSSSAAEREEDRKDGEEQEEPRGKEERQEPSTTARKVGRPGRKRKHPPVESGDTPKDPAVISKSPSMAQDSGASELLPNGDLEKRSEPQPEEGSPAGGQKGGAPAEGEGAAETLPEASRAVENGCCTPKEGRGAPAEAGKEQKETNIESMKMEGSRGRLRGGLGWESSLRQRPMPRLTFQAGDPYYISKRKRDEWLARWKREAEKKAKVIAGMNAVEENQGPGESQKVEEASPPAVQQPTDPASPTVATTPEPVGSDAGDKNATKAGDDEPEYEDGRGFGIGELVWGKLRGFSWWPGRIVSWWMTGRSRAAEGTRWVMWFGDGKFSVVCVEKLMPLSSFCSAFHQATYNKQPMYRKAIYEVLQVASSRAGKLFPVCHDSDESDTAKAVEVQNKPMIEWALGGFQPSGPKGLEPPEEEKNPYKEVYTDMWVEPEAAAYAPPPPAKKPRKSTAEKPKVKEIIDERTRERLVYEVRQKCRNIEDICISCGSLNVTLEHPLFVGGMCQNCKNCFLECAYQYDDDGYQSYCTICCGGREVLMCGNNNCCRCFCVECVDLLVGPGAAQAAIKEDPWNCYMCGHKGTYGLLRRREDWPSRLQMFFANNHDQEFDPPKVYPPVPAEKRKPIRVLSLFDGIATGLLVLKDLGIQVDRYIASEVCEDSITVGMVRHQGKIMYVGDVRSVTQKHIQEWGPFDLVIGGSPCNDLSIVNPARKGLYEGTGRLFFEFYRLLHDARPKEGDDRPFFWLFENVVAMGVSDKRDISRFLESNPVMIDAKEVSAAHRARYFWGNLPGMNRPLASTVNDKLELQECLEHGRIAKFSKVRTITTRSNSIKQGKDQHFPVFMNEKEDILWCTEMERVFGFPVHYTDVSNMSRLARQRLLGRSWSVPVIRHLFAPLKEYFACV

Plasmodium falciparum [6] = experiment: Antiplasmodial activity against Plasmodium falciparum Dd2 infected in human erythrocytes assessed as reduction in [3H]-hypoxanthine incorporation measured after 48 hrs by microbeta liquid scintillation counting method; type: functional, organism-based
Plasmodium falciparum [7] = experiment: Antiplasmodial activity against asynchronous form of Plasmodium falciparum W2 infected in human erythrocytes assessed as parasite growth inhibition after 48 hrs by SYBR green1 staining based flow cytometry; type: functional, organism-based; conditions: W2, 48 h
[8] = Cytotoxicity against mouse spleen cells; type: cell-based
[9] = Selectivity index, ratio of IC50 for mouse spleen cells to IC50 for asynchronous form of Plasmodium falciparum 3D7 infected in human erythrocytes; type: toxicity, cell-based; conditions: read-out: Ratio IC50
HFF = experiment: Cytotoxicity against HFF; type: cell-based; conditions: Homo sapiens

O=C(CCCCSc1nc(-c2ccc(Cl)cc2)cc(=O)[nH]1)NO
inhibition at 10 µM (Plasmodium falciparum [1]): 98% | IC50 (Plasmodium falciparum [2]): 88.6 nM

O=C(/C=C/c1ccccc1CSc1nc(O)cc(-c2ccccc2)n1)NO
inhibition at 10 µM (Plasmodium falciparum [1]): 2.8%

NC1CC1c1ccc(NC(=O)CCCNC(=O)c2ccc(O)c3ncccc23)cc1 (stereo unspecified)
inhibition at 10 µM (Plasmodium falciparum [1]): 45.3%

CCOC(=O)C1=CN(Cc2ccccc2)C=C(C(=O)OCC)C1c1ccccc1
inhibition at 10 µM (Plasmodium falciparum [1]): 97.2% | IC50 (Plasmodium falciparum [2]): > 1000 nM

O=C(CCCCSc1nc(-c2ccc3ccccc3c2)cc(=O)[nH]1)NO
IC50 (Histone deacetylase 1): 1700 nM | IC50 (Histone deacetylase 4): > 50000 nM | IC50 [3]: 12 nM | inhibition at 10 µM (Plasmodium falciparum [1]): 97.9% | IC50 (Plasmodium falciparum [2]): 25.2 nM

CC1=NN(c2ccc(C(=O)O)cc2)C(=O)/C1=C\c1ccc(-c2cc(C)c(C)cc2[N+](=O)[O-])o1
inhibition at 10 µM (Plasmodium falciparum [1]): 12.8%

c1ccc(N2CCN(c3nc(NC4CCN(Cc5ccc6ccccc6c5)CC4)c4ccccc4n3)CC2)cc1
EC50 [4]: > 100000 nM | EC50 [5]: 2400 nM | inhibition at 10 µM (Plasmodium falciparum [1]): 100% | IC50 (Plasmodium falciparum [2]): 138 nM

NC1CC1c1ccc(NC(=O)CCCCCNC(=O)c2ccc(O)c3ncccc23)cc1 (stereo unspecified)
inhibition at 10 µM (Plasmodium falciparum [1]): 96.7% | IC50 (Plasmodium falciparum [2]): > 1000 nM

COc1cc2nc(N3CCN(c4ccccc4)CC3)nc(NC3CCN(Cc4ccccc4)CC3)c2cc1OC
EC50 [4]: > 100000 nM | EC50 [5]: 5400 nM | inhibition at 10 µM (Plasmodium falciparum [1]): 100% | IC50 (Plasmodium falciparum [2]): 37.8 nM

COc1cc2nc(N3CCCN(C)CC3)nc(NC3CCN(Cc4ccccc4)CC3)c2cc1OC
inhibition at 10 µM (Plasmodium falciparum [1]): 100% | IC50 (Plasmodium falciparum [2]): 20.8 to 23.7 nM | IC50 (Plasmodium falciparum [6]): 9.7 nM | IC50 (Plasmodium falciparum [7]): 16.7 nM | IC50 [8]: 555 nM | selectivity ratio [9]: 23 | IC50 (HFF): 5000 nM

O=C(O)c1ccc(O)c2ncccc12
inhibition at 10 µM (Plasmodium falciparum [1]): 25.4%

O=C1/C(=C/c2ccc(O)c(Br)c2)CN(Cc2ccccc2)C/C1=C\c1ccc(O)c(Br)c1
inhibition at 10 µM (Plasmodium falciparum [1]): 100% | IC50 (Plasmodium falciparum [2]): > 1000 nM

O=c1nc2oc3ccc4ccccc4c3cc-2c(=O)n1-c1ccccc1
inhibition at 10 µM (Plasmodium falciparum [1]): 80.5% | IC50 (Plasmodium falciparum [2]): > 1000 nM

CC1=C(/C=C/C(C)=C/C=C/C(C)=C/C(=O)Nc2ccccc2N)C(C)(C)CCC1
inhibition at 10 µM (Plasmodium falciparum [1]): 97.1% | IC50 (Plasmodium falciparum [2]): > 1000 nM

O=C(Cc1cccc2ccccc12)Nc1ccc(C(=O)NO)nc1
IC50 (Histone deacetylase 1): 300 nM | IC50 (Histone deacetylase 4): > 50000 nM | IC50 [3]: 26 nM | inhibition at 10 µM (Plasmodium falciparum [1]): 97.9% | IC50 (Plasmodium falciparum [2]): > 1000 nM

CC(C(=O)Nc1cccc(/N=C/c2c(O)ccc3ccccc23)c1)c1ccccc1 (stereo unspecified) [SALERMIDE]
inhibition at 10 µM (Plasmodium falciparum [1]): 72.3% | IC50 (Plasmodium falciparum [2]): > 1000 nM

CCCCCCCCCCCCCCC=C(C(=O)OCC)C(=O)OCC
inhibition at 10 µM (Plasmodium falciparum [1]): 92.7% | IC50 (Plasmodium falciparum [2]): > 1000 nM

O=C(/C=C/c1ccc(Cc2nnc(Cc3cccc4ccccc34)o2)cc1)NO
inhibition at 10 µM (Plasmodium falciparum [1]): 98% | IC50 (Plasmodium falciparum [2]): 244 nM

COc1cc2c(NC3CCN(C(C)C)CC3)nc(C3CCCCC3)nc2cc1OCCCN1CCCC1
inhibition at 10 µM (Plasmodium falciparum [1]): 100% | IC50 (Plasmodium falciparum [2]): 67.9 to 68.7 nM | IC50 (Plasmodium falciparum [6]): 16.8 nM | IC50 (Plasmodium falciparum [7]): 38.5 nM | IC50 [8]: 1440 nM | selectivity ratio [9]: 21 | IC50 (HFF): 2290 nM

O=C(CCCCCSc1nc(-c2ccc(-c3ccccc3)cc2)cc(=O)[nH]1)NO
IC50 (Histone deacetylase 1): 100 nM | IC50 (Histone deacetylase 4): > 50000 nM | IC50 [3]: 9 nM | inhibition at 10 µM (Plasmodium falciparum [1]): 97.4% | IC50 (Plasmodium falciparum [2]): 50.9 nM

NC1CC1c1ccc(NC(=O)CCCCNC(=O)c2ccc(O)c3ncccc23)cc1 (stereo unspecified)
inhibition at 10 µM (Plasmodium falciparum [1]): 97.8% | IC50 (Plasmodium falciparum [2]): > 1000 nM

c1ccc(CCCN2CCC(Nc3nc(N4CCN(c5ccccc5)CC4)nc4ccccc34)CC2)cc1
EC50 [4]: > 100000 nM | EC50 [5]: 5100 nM | inhibition at 10 µM (Plasmodium falciparum [1]): 100% | IC50 (Plasmodium falciparum [2]): 75.1 nM

BrCCCc1nc(-c2ccc(Br)cc2)no1
inhibition at 10 µM (Plasmodium falciparum [1]): 18.7%

CC(C)N(CCCNC(=O)Nc1ccc(C(C)(C)C)cc1)C[C@H]1O[C@@H](n2cnc3c(N)ncnc32)[C@H](O)[C@@H]1O
inhibition at 10 µM (Plasmodium falciparum [1]): 9.7%

CCOC(=O)c1c(C)nc2ccccc2c1O
inhibition at 10 µM (Plasmodium falciparum [1]): 60.1% | IC50 (Plasmodium falciparum [2]): > 1000 nM

NC1CC1c1ccc(NC(=O)[C@H](Cc2ccccc2)NC(=O)OCc2ccccc2)cc1 (stereo partly specified)
inhibition at 10 µM (Plasmodium falciparum [1]): 64.6% | IC50 (Plasmodium falciparum [2]): > 1000 nM

COc1ccc2nc(N3CCN(c4ccccc4)CC3)nc(NC3CCN(Cc4ccccc4)CC3)c2c1
EC50 [4]: > 100000 nM | EC50 [5]: 5400 nM | inhibition at 10 µM (Plasmodium falciparum [1]): 100% | IC50 (Plasmodium falciparum [2]): 52.5 nM

Cn1c(/C=C/C(=O)NO)ccc1/C=C/C(=O)c1cccc(Cl)c1
inhibition at 10 µM (Plasmodium falciparum [1]): 89.6% | IC50 (Plasmodium falciparum [2]): > 1000 nM

c1ccc(CN2CCC(Nc3nc(N4CCN(c5ccccc5)CC4)nc4ccccc34)CC2)cc1
inhibition at 10 µM (Plasmodium falciparum [1]): 100% | IC50 (Plasmodium falciparum [2]): 326 nM

O=C1/C(=C/c2ccc(O)c(Br)c2)CSC/C1=C\c1ccc(O)c(Br)c1
inhibition at 10 µM (Plasmodium falciparum [1]): 99.5% | IC50 (Plasmodium falciparum [2]): 952 nM

Cc1cc(C)c(CNC(=O)c2cnn(-c3ccccc3)c2C)c(=O)[nH]1
inhibition at 10 µM (Plasmodium falciparum [1]): 14.7%

Nc1ccccc1NC(=O)c1ccc(CNC(=O)OCc2cccnc2)cc1 [ENTINOSTAT]
inhibition at 10 µM (Plasmodium falciparum [1]): 50.9% | IC50 (Plasmodium falciparum [2]): > 1000 nM

COc1ccc2c(NC3CCN(Cc4ccccc4)CC3)nc(N3CCN(c4ccccc4)CC3)nc2c1
EC50 [4]: > 100000 nM | EC50 [5]: 4600 nM | inhibition at 10 µM (Plasmodium falciparum [1]): 100% | IC50 (Plasmodium falciparum [2]): 83 nM

NC1CC1c1ccc(NC(=O)c2ccc(O)c3ncccc23)cc1 (stereo unspecified)
inhibition at 10 µM (Plasmodium falciparum [1]): 98.9 to 100% | IC50 (Plasmodium falciparum [2]): 776 to 1000 nM

O=S(=O)(c1cccc(C(F)(F)F)c1)N1c2ccccc2-n2cccc2C1c1cccnc1 (stereo unspecified)
inhibition at 10 µM (Plasmodium falciparum [1]): 99.5% | IC50 (Plasmodium falciparum [2]): 671 nM

c1ccc(CCN2CCC(Nc3nc(N4CCN(c5ccccc5)CC4)nc4ccccc34)CC2)cc1
EC50 [4]: > 100000 nM | EC50 [5]: 5400 nM | inhibition at 10 µM (Plasmodium falciparum [1]): 100% | IC50 (Plasmodium falciparum [2]): 98.9 nM

NC1CC1c1ccc(NC(=O)c2ccc(-c3ccccc3)cc2)cc1 (stereo unspecified)
inhibition at 10 µM (Plasmodium falciparum [1]): 97.5% | IC50 (Plasmodium falciparum [2]): > 1000 nM

O=c1[nH]c(SCCN2CCN(c3ccccn3)CC2)nc2ccccc12
inhibition at 10 µM (Plasmodium falciparum [1]): 2%

CC(C)(C)OC(=O)Nc1cccc(C(=O)/C=C/c2ccc(/C=C/C(=O)NO)cc2)c1
inhibition at 10 µM (Plasmodium falciparum [1]): 100% | IC50 (Plasmodium falciparum [2]): 422 nM
